Test [1] relates to substance-P induced relaxation of the pig coronary arteries. Put plainly: Antagonism of substance-P induced relaxation of the pig coronary arteries. The following applies: concentration at which 50% of the response to 10^−9 M substance P was inhibited, 30 minutes incubation, prostaglandin F2a precontracted segments. The class given is cell-based. From the text: (§1) The compounds of the present invention are potent inhibitors of neurokinin-mediated effects, in particular those mediated via the NK1 receptor, and may therefore be described as tachykinin antagonists, especially as substance P antagonists, as indicated in vitro by the antagonism of substance P induced relaxation of pig coronary arteries which is described hereinafter. The binding affinity of the present compounds for the human, guinea-pig and gerbil neurokinin receptors may be determined in vitro in a receptor binding test using ^3H-substance-P as radioligand. The subject compounds also show substance-P antagonistic activity in vivo as may be evidenced by, for instance, the antagonism of substance P-induced plasma extravasation in guinea-pigs, or the antagonism of drug-induced emesis in ferrets (Watson et al., Br. J. Pharmacol. 115, 84-94, 1995).
Antagonism of substance-P induced relaxation of the pig coronary arteries
Segments of coronary artieries taken from pigs (killed by injection of an overdose of sodium pentobarbital) were inverted and mounted for recordign of isometric tension in organ baths (volume 20 ml) with the endothelium at the outside. The preparations were bathed in Krebs-Henseleit solution. The solution was kept at 37° C. and gassed with a mixture of O2/CO2 (95/5). After stabilisation of the preparations, prostaglandin F2a (10^−5 M) was administered to induce a contraction. This was repeated until contractivle responses became stable. Then prostaglandin F2a was again administered and substance P(3×10^−10 M and 10^−9 M cumulatively) was added. Substance P induced endothelium dependent relaxations. After washing away the agonists, a known concentratin of a compound of formula (I) was added. After an incubation period of 30 minutes, prostaglandin F2a ([…]) and the same concentrations of sbustance P as described above were again administered in the presence of the compound to be tested. Relaxations caused by substance P were expressed as relaxations under control conditions, and percent inhibition of the response to […] substance P was taken as a measure of the antagonistic activity of the compound to be tested. Table 6 lists the IC50 values (concentration at which 50% of the response to […] substance P was inhibited by the test compound) for the tested compounds.

Test [2] has as its system substance P induced plasma extravasation. Put plainly: Antagonism of substance P induced plasma extravasation in guinea-pigs. The following applies: lowest active dose, female guinea-pigs; for LAD nose: compound 1 hour prior to substance P (2 mg/kg, femoral artery), blue colouring of nose 10 minutes after challenge; for LAD conjunctiva / LAD forepaws / LAD trachea / LAD urinary bladder: compound 1 hour prior to substance P; for LAD conjunctiva: blue colouring of conjunctiva 10 minutes after challenge; for LAD forepaws: blue colouring of forepaws 10 minutes after challenge; for LAD trachea: blue colouring of trachea 30 minutes after challenge; for LAD urinary bladder: blue colouring of urinary bladder 30 minutes after challenge. The class given is in vivo.
Description: as §1
Antagonism of substance P induced plasma extravasation in guinea-pigs
Plasma extravasation was induced by injection of substance P (2 mg/kg) in the femoral artery of female guinea-pigs. Evans Blue dye (30 mg/kg) was injected simultaneously. The test compound or solvent was administered 1 hour prior to substance P injection. 10 minutes after challenge, the aminals were checked for blue colouring (a direct measure for plasma extravasation) of the nose, the forepaws, and the conjectiva. 30 minutes after challenge, the animals were sacrificed by CO2 gas inhalation and checked for blue colouring of the trachea and the urinary bladder. […]

For the compound `Cc1cccc(C)c1NC(=O)CN1CCN(C2CCN(C(=O)c3cc(C(F)(F)F)cc(C(F)(F)F)c3)C(Cc3ccccc3)C2)CC1` (stereo not drawn) [Compound 53], it took 0.35 nM to reach half-maximal inhibition in test [1] (IC50). In test [2], this compound returned an LAD nose of 1.25 mg/kg, an LAD conjunctiva of 1.25 mg/kg, an LAD forepaws of 1.25 mg/kg and an LAD trachea of 2.50 mg/kg. The LAD urinary bladder in test [2] is on record as 2.50 mg/kg.

For the compound `O=C(CN1CCN(C2CCN(C(=O)c3cc(C(F)(F)F)cc(C(F)(F)F)c3)C(Cc3ccccc3)C2)CC1)NC1(c2ccccc2)CCCCC1` (stereo not drawn) [Compound 49], it took 0.59 nM to reach half-maximal inhibition in test [1] (IC50). In addition, in test [2], the LAD nose came out at 2.50 mg/kg, the LAD conjunctiva stood at 2.50 mg/kg, the LAD forepaws came to 2.50 mg/kg and the LAD trachea is given as 10.0 mg/kg. This compound yielded an LAD urinary bladder in test [2] of more than 40 mg/kg.

In the case of `Cc1cccc(C)c1NC(=O)CN1CCN([C@H]2CCN(C(=O)c3cc(C(F)(F)F)cc(C(F)(F)F)c3)[C@@H](Cc3cc(F)cc(F)c3)C2)CC1` (racemic) [Compound 132, (±)-cis-4-[1-[3,5-bis (trifluoromethyl)benzoyl]-2-[(3,5-difluorophenyl)methyl]-4-piperidinyl]-N-(2,6-dimethylphenyl)-1-piperazineacetamide], in test [1] (Sus scrofa, 0.5 h), half-maximal inhibition (IC50) required 2.08 nM. Moreover, in test [2], the LAD nose is reported as 10.0 mg/kg, the LAD conjunctiva was 10.0 mg/kg, the LAD forepaws is recorded as 10.0 mg/kg and the LAD trachea was 10.0 mg/kg. The compound further registered an LAD urinary bladder in test [2] of 10.0 mg/kg.

The compound `Cc1cccc(C)c1NC(=O)CN1CCN(C2CCN(C(=O)c3cc(C(F)(F)F)cc(C(F)(F)F)c3)C(Cc3ccc(C(F)(F)F)cc3)C2)CC1.O=C(O)/C=C/C(=O)O` (single isomer, unassigned) [Compound 136] displayed an IC50 in test [1] of 0.31 nM. In test [2], this compound showed an LAD nose of 2.50 mg/kg, an LAD conjunctiva of 2.50 mg/kg, an LAD forepaws of 2.50 mg/kg and an LAD trachea of 2.50 mg/kg. In test [2], the LAD urinary bladder worked out at 2.50 mg/kg.

Turning to `O=C(CN1CCN(C2CCN(C(=O)c3cc(C(F)(F)F)cc(C(F)(F)F)c3)C(Cc3ccccc3)C2)CC1)N1CCCc2ccccc21` (racemic) [Compound 101], in test [1], half-maximal inhibition (IC50) was put at 0.75 nM. In test [2], this compound returned an LAD nose of 10.0 mg/kg, an LAD conjunctiva of 10.0 mg/kg, an LAD forepaws of 10.0 mg/kg and an LAD trachea of more than 40 mg/kg. Besides, the LAD urinary bladder in test [2] is more than 40 mg/kg.

In turn, `Cc1cccc(C)c1NC(=O)CN1CCN(C2CCN(C(=O)c3cc(C(F)(F)F)cc(C(F)(F)F)c3)C(Cc3ccc(C(F)(F)F)cc3)C2)CC1` (single isomer, unassigned) [Compound 137] yielded an IC50 in test [1] of 0.23 nM. In addition, in test [2], the LAD nose stood at 2.50 mg/kg, the LAD conjunctiva came out at 2.50 mg/kg, the LAD forepaws turned out to be 2.50 mg/kg and the LAD trachea is on record as 2.50 mg/kg. Besides, the LAD urinary bladder in test [2] was 2.50 mg/kg.

Consider `Cc1cccc(C)c1NC(=O)C(c1ccccc1)N1CCN(C2CCN(C(=O)c3cc(C(F)(F)F)cc(C(F)(F)F)c3)C(Cc3ccccc3)C2)CC1` (racemic) [Compound 94], for which 0.42 nM corresponded to half-maximal inhibition in test [1] (IC50). In test [2], this compound gave an LAD nose of 2.50 mg/kg, an LAD conjunctiva of 2.50 mg/kg, an LAD forepaws of 2.50 mg/kg and an LAD trachea of 10.0 mg/kg. The LAD urinary bladder in test [2] was determined as 10.0 mg/kg.

In test [1], `COc1ccccc1N1CCN(C2CCN(C(=O)c3cc(C(F)(F)F)cc(C(F)(F)F)c3)C(Cc3ccccc3)C2)CC1` (racemic) [Compound 56] came in with an IC50 of 3.25 nM. In test [2], this compound came in with an LAD nose of 10.0 mg/kg, an LAD conjunctiva of 10.0 mg/kg, an LAD forepaws of 10.0 mg/kg and an LAD trachea of 40.0 mg/kg. The same compound registered an LAD urinary bladder in test [2] of 2.50 mg/kg.

As to `O=C(C(c1ccccc1)N1CCN(C2CCN(C(=O)c3cc(C(F)(F)F)cc(C(F)(F)F)c3)C(Cc3ccccc3)C2)CC1)N1CCCC1` (mixture of isomers) [Compound 46], inhibition in test [1] was half-maximal at 0.42 nM (IC50). For the same compound, in test [2], the LAD nose is given as 0.63 mg/kg, the LAD conjunctiva was 0.63 mg/kg, the LAD forepaws came out at 0.63 mg/kg and the LAD trachea is more than 40 mg/kg. This compound also yielded an LAD urinary bladder in test [2] of 0.63 mg/kg.

Take `CCOCCn1c(CN2CCN(C3CCN(C(=O)c4cc(C(F)(F)F)cc(C(F)(F)F)c4)C(Cc4ccccc4)C3)CC2)nc2cccnc21` (racemic) [Compound 25]: half-maximal inhibition in test [1] (IC50) was put at 0.79 nM. For the same compound, in test [2], the LAD nose is recorded as 2.50 mg/kg, the LAD conjunctiva came out at 10.0 mg/kg, the LAD forepaws turned out to be 2.50 mg/kg and the LAD trachea is given as more than 40 mg/kg. In addition, the LAD urinary bladder in test [2] is recorded as more than 40 mg/kg.

In the case of `Cc1cccc(C)c1NC(=O)CN1CCN(C2CCN(C(=O)c3cc(C(F)(F)F)cc(C(F)(F)F)c3)C(Cc3ccc(F)c(F)c3)C2)CC1` (racemic) [Compound 135], in test [1], the half-inhibitory concentration (IC50) came out at 0.01 nM. In test [2], this compound showed an LAD nose of 0.63 mg/kg, an LAD conjunctiva of 0.63 mg/kg, an LAD forepaws of 0.63 mg/kg and an LAD trachea of 2.50 mg/kg. Further, the LAD urinary bladder in test [2] was more than 40 mg/kg.

In test [1], “(+)-(B)-trans-4-[1-[3,5-bis(trifluoromethyl)benzoyl]-2-(phenylmethyl)-4-piperidinyl]-N-(2,6-dimethylphenyl)-1- piperazine acetamide [Compound 27]” had an IC50 of 0.13 nM. In test [2], the LAD nose came to 0.63 mg/kg, the LAD conjunctiva is listed as 0.63 mg/kg, the LAD forepaws worked out at 0.63 mg/kg and the LAD trachea worked out at 0.63 mg/kg. This compound returned an LAD urinary bladder in test [2] of 0.63 mg/kg.

In the case of `Cc1cccc(C)c1NC(=O)CN1CCN([C@@H]2CCN(C(=O)c3cc(C(F)(F)F)cc(C(F)(F)F)c3)[C@@H](Cc3ccccc3)C2)CC1.O=C(O)/C=C/C(=O)O` (relative stereo) [Compound 128, (B-trans)-4-[1-[3,5-bis(trifluoromethyl)benzoyl]-2-(phenylmethyl)-4-piperidinyl]-N-(2,6-dimethylphenyl)-1-piperazineacetamide (E)-2-butenedioate (1:1)], in test [1], half-maximal inhibition (IC50) was put at 0.35 nM. In test [2], this compound displayed an LAD nose of 0.63 mg/kg, an LAD conjunctiva of 0.63 mg/kg, an LAD forepaws of 0.63 mg/kg and an LAD trachea of more than 40 mg/kg. In test [2], this compound returned an LAD urinary bladder of 10.0 mg/kg.

In test [1] (Sus scrofa, 0.5 h), `Cc1cccc(C)c1NC(=O)CN1CCN([C@@H]2CCN(C(=O)c3cc(C(F)(F)F)cc(C(F)(F)F)c3)[C@@H](Cc3ccc(Cl)c(Cl)c3)C2)CC1` (racemic) [Compound 139, (±)-trans-4-[1-[3,5-bis(trifluoromethyl)benzoyl]-2-[(3,4-dichlorophenyl)methyl]-4-piperidinyl]-N-(2,6-dimethylphenyl)-1-piperazineacetamide] returned an IC50 of 0.13 nM. Also, in test [2], the LAD nose is reported as 2.50 mg/kg, the LAD conjunctiva came out at 2.50 mg/kg, the LAD forepaws amounted to 2.50 mg/kg and the LAD trachea worked out at 2.50 mg/kg. In addition, in test [2], the LAD urinary bladder worked out at 2.50 mg/kg.

Compound `Cc1cccc(C)c1NC(=O)CN1CCN(C2CCN(C(=O)c3cc(C(F)(F)F)cc(C(F)(F)F)c3)C(Cc3ccccc3)C2)CC1` (single isomer, unassigned) [Compound 42] came in with a half-maximal inhibitory concentration (IC50) in test [1] of 0.93 nM. In test [2], this compound returned an LAD nose of 1.25 mg/kg, an LAD conjunctiva of 2.50 mg/kg, an LAD forepaws of 1.25 mg/kg and an LAD trachea of 5.00 mg/kg. In test [2], this compound had an LAD urinary bladder of 5.00 mg/kg.

The values above are taken from USRE37886E1, “1-(1,2-Disubstituted piperidinyl)-4-substituted piperazine derivatives” (Janssen Pharmaceuticals, N.V., priority 1995, dated 2002).
